# Assay results published in patent US12492232B2, “Methods for producing proteins” (South Australian Health and Medical Research Institute …, priority 2018, dated 2025).
# Entries after “also recorded” stand apart in the source; their conditions may differ.
# What was measured:
# Format in all cases: cell-based
# [1] = test system: mTORC1 localisation at the lysosome; assay: Immunofluorescence of mTOR and LAMP1 colocalisation in serum-starved transfected CHO cells; details: medium lacking FBS for 16 h
# Protocol: (§1) 24 h after transfection cells were transferred to medium lacking FBS for 16 hours. Cells were fixed with 4% paraformaldehyde, permeabilized with 0.05% Triton X-100, blocked with 10% normal donkey serum before LAMP1 and then anti-mTOR antibodies were applied overnight. Alexa Fluor™ 488 and 594-labelled secondary antibodies were applied before cells were mounted and stained with DAPI.
# as §1, with “h.” for “hours.”, “mTOR” for “then anti-mTOR”, “594” for “594-labelled”
# CHO cells = assay: Growth of transfected CHO cells in medium with 10%, 1%, 0.5% or 0% FBS (cell counts over 7 days)
# Protocol: CHO cells were seeded into 24-well plates at 5,000 cells/well. […] 24 h after transfection, cells were transferred to medium containing 10%, 1%, 0.5% or 0% FBS as indicated. Every 24 h for 7 days, cells were trypsinized (from different dishes on each occasion) and counted on a haemocytometer. Growth medium was changed every 2 days.
# CHO cells were seeded into 24-well plates at 5,000 cells/well. […] 24 h after transfection, cells were transferred to media (Ham's F12 from Life Technologies, Cat. No. 11765054) containing 10%, 1%, 0.5% or 0% foetal bovine serum, as indicated. Cells were trypsinized and counted on a haemocytometer every 24 h for 7 days. Growth medium was changed every 2 days.
# [2] = test system: CHO cells stably expressing Gaussia luciferase (GLuc); assay: Secreted Gaussia luciferase assay in CHO cells stably expressing GLuc transfected with Rheb vectors
# Protocol: CHO cells stably expressing Firefly luciferase (FLuc) or Gaussia luciferase (GLuc) as indicated were transfected using Lipofectamine3000 with an empty vector (EV) or vectors for Rheb WT, S21L, T23M, G29S, Y35N or E40K and also treated with the mTOR inhibitor AZD8055 at 100 nM for the total duration where indicated. Fluc and GLuc assays were performed 24 h after transfection and then every 48 h for 7 days. Assay results are normalised to cell number. GLuc-CHO cells were harvested for SDS-PAGE and Western Blot analysis at the 168 h (7-day) time-point to probe for intracellular GLuc, FLAG (Rheb) and actin, as ‘loading control’. […] However, Rheb-T23M and —Y35N caused a significant 3-fold increase in secreted Gaussia luciferase that was also seen with E40K and was prevented by treatment with AZD8055 (C/D [histogram of day 7]). In (E), secreted GLuc was monitored every 4 h from 24 h to 60 h showing the rate of secretion of GLuc was higher when Rheb-T23M is expressed as compared to Rheb-Y35N. The pattern for intracellular levels of Gaussia luciferase (assessed by immunoblot of cell lysates harvested at 7 days post transfection) more closely resemble those intracellular firefly luciferase (F) with little change compared to either the empty vector or WT while still retaining heightened mTORC1 signalling as indicated by the elevated levels of P-S6K1 Thr389 compared to cells transfected with the empty vector. CHO cells expressing Rheb-T23M, Y35N and E40K show a small increases in general protein synthesis but a marked increase in secreted Gaussia protein that is blocked by mTOR inhibition. Thus, Rheb[T23M] selectively promotes production of the secreted protein GLuc in a process that requires mTOR signalling.
# Constructs were introduced into CHO cells using Lipofectamine3000 (Life Technologies) according to the manufacturer's protocol. Cell lines stably expressing secreted luciferase were generated by cloning the GLuc gene with a signal sequence from Nanolight Technology (see paper sent with this version) and cloning this into the pcDNA4 commercially available vector where gene expression was driven by a CMV promoter. The subsequent vectors were transfected, using lipofectamine, into CHO-S freestyle suspension cells and grown in CD-CHO media and then stable transfectant pools selected by addition of zeocin antibiotic. Once stable pools had emerged these were subjected to limited dilution cloning to obtain a range of pools with different secreted GLuc expression levels. Methods as are described, for example, in Josse et al. (2009) Biotechnology and Bioengineering 105: 556-566.
# For Gaussia luciferase, we employed the BioLux® Gaussia Luciferase Assay Kit (New England Biolabs (NEB), Cat. No. E3300S) and for firefly luciferase the Luciferase Assay System from Promega (Cat. No. E1500). Cells were grown in Ham's F12 medium F12 nutrient mix, Ham's (Life Technologies, Cat. No. 11765054).
# CHO cells stably expressing Firefly luciferase (FLuc; which is cytoplasmic) or Gaussia luciferase (GLuc; which is secreted) as indicated were transfected using Lipofectamine3000 with an empty vector (EV) or vectors for Rheb WT, S21L, T23M, G29S, Y35N or E40K and treated with the mTOR inhibitor AZD8055 at 100 nM for the total duration where appropriate. Fluc and GLuc assays were performed at 24 h after transfection and then every 48 h for 7 days. Assay results were normalised to cell number. […]
# [3] = test system: CHO cells stably expressing Firefly luciferase (FLuc); assay: Firefly luciferase assay in CHO cells stably expressing FLuc transfected with Rheb vectors; details: day 7, normalised to cell number
# Protocol: CHO cells stably expressing Firefly luciferase (FLuc) or Gaussia luciferase (GLuc) as indicated were transfected using Lipofectamine3000 with an empty vector (EV) or vectors for Rheb WT, S21L, T23M, G29S, Y35N or E40K and also treated with the mTOR inhibitor AZD8055 at 100 nM for the total duration where indicated. Fluc and GLuc assays were performed 24 h after transfection and then every 48 h for 7 days. Assay results are normalised to cell number. GLuc-CHO cells were harvested for SDS-PAGE and Western Blot analysis at the 168 h (7-day) time-point to probe for intracellular GLuc, FLAG (Rheb) and actin, as ‘loading control’. […] In (E), secreted GLuc was monitored every 4 h from 24 h to 60 h showing the rate of secretion of GLuc was higher when Rheb-T23M is expressed as compared to Rheb-Y35N. The pattern for intracellular levels of Gaussia luciferase (assessed by immunoblot of cell lysates harvested at 7 days post transfection) more closely resemble those intracellular firefly luciferase (F) with little change compared to either the empty vector or WT while still retaining heightened mTORC1 signalling as indicated by the elevated levels of P-S6K1 Thr389 compared to cells transfected with the empty vector. […]
# [4] = test system: mTORC1 and ER Stress activation markers; assay: Western blot for mTORC1 and ER stress activation markers in ExpiCHO cells stably expressing Rheb variants
substance,measurement,setting,value
"Rheb-T23M: human Rheb protein with a methionine variant at residue 23 (T23M), SEQ ID NO. 3",mTOR localisation to the lysosome (overlap with LAMP1),[1],promote localisation; also recorded: strong mTOR localisation on lysosomes
same,cell growth in serum-free medium,CHO cells; 0% FBS,allows CHO cells to grow efficiently in serum-free medium
same,cell growth in 0.5% FBS,CHO cells; 0.5% FBS,significant growth advantage over the other Rheb mutants; also recorded: substantially greater proliferation
same,cell growth in medium with 10% and 1% FBS,CHO cells; 10% or 1% FBS,no effect on cell growth
same,increase in secreted Gaussia luciferase,"[2]; day 7, normalised to cell number",3 fold
same,rate of secretion of GLuc,"[2]; monitored every 4 h from 24 h to 60 h, compared to Rheb-Y35N",higher
same,increase in synthesis of intracellular Firefly luciferase compared to the empty vector,[3],ca. 1.2 fold
same,ER stress response (Western blot markers),[4],mild ER stress response
same,mTORC1 signalling (Western blot markers),[4],increased mTORC1 signalling
